We go through 11 compounds from patent US9499550B2 (BRISTOL-MYERS SQUIBB COMPANY, priority 2012, dated 2016).

Read-outs that look alike come from different tables or passages of the source.

In assay [1] the test system is HCV genotype 1a (H77 strain) replicon in HUH-7 cells. As to the kind of experiment: HCV replicon luciferase reporter assay, genotype 1a. The format is cell-based. The settings on record: Hepatitis C virus, Huh-7, 72 h, HCV genotype 1a replicon luciferase, 3 days incubation, read-out: LE_1a (EC50, range). Summed up: (§1)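 Replicon inhibition for both genotypes was measured as Renilla luciferase signal (EnduRen, 7.5 μM final, 2 h) after 3-day, 37° C exposure of replicon-bearing HUH-7 cells in 4% FCS DMEM, 0.5% DMSO. The 1b construct carries S1179I; the 1a H77 construct carries P1496L and S2204I. Twenty-point, 3-fold dilutions were fitted four-parametrically for EC50, and CC50 was taken from multiplexed Cell Titer-Blue.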

The test system of assay [2] is HCV genotype 1b (Con1) replicon in HUH-7 cells. As to the kind of experiment: HCV replicon luciferase reporter assay, genotype 1b. Format: cell-based. The settings on record: Hepatitis C virus, Huh-7, 72 h, HCV genotype 1b replicon luciferase, 3 days incubation, read-out: LE_1b (EC50, range). Summed up: as §1
For orientation: A replicon is a self-replicating genome or part of one, used to study replication in cells.

For orientation: EC50 means the concentration that produces a half-maximal response. Regarding `CCOc1cnc(O[C@@H]2C[C@H]3C(=O)N[C@]4(C(=O)NS(=O)(=O)C5(C)CC5)C[C@H]4/C=C\CC[C@@H](C)C[C@@H](C)[C@H](NC(=O)Oc4ccc(F)cc4F)C(=O)N3C2)c2ccccc12` [Compound 4138, 2,4-difluorophenyl (2R,6S,7R,9R,13aS,14aR,16aS,Z)-2-(4-ethoxyisoquinolin-1-yloxy)-7,9-dimethyl-14a-(1-methylcyclopropylsulfonylcarbamoyl)-5,16-dioxo-1,2,3,5,6,7,8,9,10,11,13a,14,14a,15,16,16a-hexadecahydrocyclopropa[e]pyrrolo[1,2-a][1,4]diazacyclopentadecin-6-ylcarbamate], the EC50 in assay [1] and in assay [2] was 4.82 to 103 nM each time.

For the compound `CCOc1cnc(O[C@@H]2C[C@H]3C(=O)N[C@]4(C(=O)NS(=O)(=O)C5(C)CC5)C[C@H]4/C=C\CC[C@@H](C)C[C@@H](C)[C@H](NC(=O)Oc4ccccc4F)C(=O)N3C2)c2ccccc12` [Compound 4139, 2-fluorophenyl (2R,6S,7R,9R,13aS,14aR,16aS,Z)-2-(4-ethoxyisoquinolin-1-yloxy)-7,9-dimethyl-14a-(1-methylcyclopropylsulfonylcarbamoyl)-5,16-dioxo-1,2,3,5,6,7,8,9,10,11,13a,14,14a,15,16,16a-hexadecahydrocyclopropa[e]pyrrolo[1,2-a][1,4]diazacyclopentadecin-6-ylcarbamate], the EC50 in assay [1] and in assay [2] was 4.82 to 103 nM each time.

Regarding `CCOc1cnc(O[C@@H]2C[C@H]3C(=O)N[C@]4(C(=O)NS(=O)(=O)C5(C)CC5)C[C@H]4/C=C\CC[C@@H](C)C[C@@H](C)[C@H](NC(=O)Oc4ccccc4)C(=O)N3C2)c2ccccc12` [Compound 4140, phenyl (2R,6S,7R,9R,13aS,14aR,16aS,Z)-2-(4-ethoxyisoquinolin-1-yloxy)-7,9-dimethyl-14a-(1-methylcyclopropylsulfonylcarbamoyl)-5,16-dioxo-1,2,3,5,6,7,8,9,10,11,13a,14,14a,15,16,16a-hexadecahydrocyclopropa[e]pyrrolo[1,2-a][1,4]diazacyclopentadecin-6-ylcarbamate], the EC50 in assay [1] and in assay [2] was less than 5.46 nM in each case.

On to `COc1ccc2c(O[C@@H]3C[C@H]4C(=O)N[C@]5(C(=O)NS(=O)(=O)C6(C)CC6)C[C@H]5/C=C\CC[C@@H](C)C[C@@H](C)[C@H](NC(=O)C5CCN(C(C)=O)CC5)C(=O)N4C3)ncc(OC)c2c1` [Compound 4141, (2R,6S,7R,9R,13aS,14aR,16aS,Z)-6-(1-acetylpiperidine-4-carboxamido)-2-(4,6-dimethoxyisoquinolin-1-yloxy)-7,9-dimethyl-N-(1-methylcyclopropylsulfonyl)-5,16-dioxo-1,2,3,5,6,7,8,9,10,11,13a,14,14a,15,16,16a-hexadecahydrocyclopropa[e]pyrrolo[1,2-a][1,4]diazacyclopentadecine-14a-carboxamide], for which the EC50 in assay [1] and in assay [2] was 4.82 to 103 nM each time.

On to `COc1ccc2c(O[C@@H]3C[C@H]4C(=O)N[C@]5(C(=O)NS(=O)(=O)C6(C)CC6)C[C@H]5/C=C\CC[C@@H](C)C[C@@H](C)[C@H](NC(=O)c5ccncc5F)C(=O)N4C3)ncc(OC)c2c1` [Compound 4142, (2R,6S,7R,9R,13aS,14aR,16aS,Z)-2-(4,6-dimethoxyisoquinolin-1-yloxy)-6-(3-fluoroisonicotinamido)-7,9-dimethyl-N-(1-methylcyclopropylsulfonyl)-5,16-dioxo-1,2,3,5,6,7,8,9,10,11,13a,14,14a,15,16,16a-hexadecahydrocyclopropa[e]pyrrolo[1,2-a][1,4]diazacyclopentadecine-14a-carboxamide], for which the EC50 in assay [1] and in assay [2] was less than 5.46 nM throughout.

Turning to `COc1ccc2c(O[C@@H]3C[C@H]4C(=O)N[C@]5(C(=O)NS(=O)(=O)C6(C)CC6)C[C@H]5/C=C\CC[C@@H](C)C[C@@H](C)[C@H](NC(=O)c5ccn(C)c(=O)c5)C(=O)N4C3)ncc(OC)c2c1` [Compound 4143, (2R,6S,7R,9R,13aS,14aR,16aS,Z)-2-(4,6-dimethoxyisoquinolin-1-yloxy)-7,9-dimethyl-6-(1-methyl-2-oxo-1,2-dihydropyridine-4-carboxamido)-N-(1-methylcyclopropylsulfonyl)-5,16-dioxo-1,2,3,5,6,7,8,9,10,11,13a,14,14a,15,16,16a-hexadecahydrocyclopropa[e]pyrrolo[1,2-a][1,4]diazacyclopentadecine-14a-carboxamide], the EC50 in assay [1] and in assay [2] was 4.82 to 103 nM throughout.

Consider `COc1ccc2c(O[C@@H]3C[C@H]4C(=O)N[C@]5(C(=O)NS(=O)(=O)C6(C)CC6)C[C@H]5/C=C\CC[C@@H](C)C[C@@H](C)[C@H](NC(=O)OC(C)(C)C)C(=O)N4C3)ncnc2c1` [Compound 4144, tert-butyl (2R,6S,7R,9R,13aS,14aR,16aS,Z)-2-(7-methoxyquinazolin-4-yloxy)-7,9-dimethyl-14a-(1-methylcyclopropylsulfonylcarbamoyl)-5,16-dioxo-1,2,3,5,6,7,8,9,10,11,13a,14,14a,15,16,16a-hexadecahydrocyclopropa[e]pyrrolo[1,2-a][1,4]diazacyclopentadecin-6-ylcarbamate], for which the half-maximal effective concentration (EC50) in assay [1] and in assay [2] was less than 5.46 nM in each case.

As for `C[C@@H]1CC/C=C\[C@@H]2C[C@@]2(C(=O)NS(=O)(=O)C2(C)CC2)NC(=O)[C@@H]2C[C@@H](Oc3ncnc4c(Cl)cccc34)CN2C(=O)[C@@H](NC(=O)OC(C)(C)C)[C@H](C)C1` [Compound 4145, tert-butyl (2R,6S,7R,9R,13aS,14aR,16aS,Z)-2-(8-chloroquinazolin-4-yloxy)-7,9-dimethyl-14a-(1-methylcyclopropylsulfonylcarbamoyl)-5,16-dioxo-1,2,3,5,6,7,8,9,10,11,13a,14,14a,15,16,16a-hexadecahydrocyclopropa[e]pyrrolo[1,2-a][1,4]diazacyclopentadecin-6-ylcarbamate], the EC50 in assay [1] and in assay [2] was less than 5.46 nM in each case.

For `COc1ccc2c(O[C@@H]3C[C@H]4C(=O)N[C@]5(C(=O)NS(=O)(=O)C6(CF)CC6)C[C@H]5/C=C\CC[C@@H](C)C[C@@H](C)[C@H](NC(=O)OC(C)(C)C)C(=O)N4C3)nccc2c1` [Compound 4147, tert-butyl (2R,6S,7R,9R,13aS,14aR,16aS,Z)-14a-(1-(fluoromethyl)cyclopropylsulfonylcarbamoyl)-2-(6-methoxyisoquinolin-1-yloxy)-7,9-dimethyl-5,16-dioxo-1,2,3,5,6,7,8,9,10,11,13a,14,14a,15,16,16a-hexadecahydrocyclopropa[e]pyrrolo[1,2-a][1,4]diazacyclopentadecin-6-ylcarbamate], the EC50 in assay [1] and in assay [2] was less than 5.46 nM in each case.

On to `COc1ccc2c(O[C@@H]3C[C@H]4C(=O)N[C@]5(C(=O)NS(=O)(=O)C6(CF)CC6)C[C@H]5/C=C\CC[C@@H](C)C[C@@H](C)[C@H](NC(=O)OC(C)(C)C(F)(F)F)C(=O)N4C3)cc(-c3ccc(OC(C)C)cc3)nc2c1` [Compound 4148], for which the EC50 in assay [1] (GETYPE1A) and in assay [2] (GETYPE1B) was less than 5.46 nM each time.

In the case of `CCOc1cnc(O[C@@H]2C[C@H]3C(=O)N[C@]4(C(=O)NS(=O)(=O)C5(CF)CC5)C[C@H]4/C=C\CC[C@@H](C)C[C@@H](C)[C@H](NC(=O)OC(C)(C)C(F)(F)F)C(=O)N3C2)c2ccccc12` [Compound 4149], the EC50 in assay [1] (GETYPE1A) and in assay [2] (GETYPE1B) was less than 5.46 nM each time.
